Source: US12037343B2, “Process for the preparation of sodium (2r,5s,13ar)-7,9-dioxo-10-((2,4,6,-trifluorobenzyl)carbamoyl)-2,3,4,5,7,9,13,13A-octahydro-2,5-methanopyrido[1′,2′:4,5]pyrazino[2,1-B] [1,3] oxazepin-8-olate and its polymorphic form” (Honour Lab Limited, priority 2018, dated 2024)
Like-named read-outs stand apart in the source and are kept apart here.

Type: physicochemical
Procedure: The stability of sample was tested by storing the samples at 40° C./75% relative humidity (RH) and 25° C./60% RH for 6 months. The stability of samples was tested by PXRD, HPLC and water content was measured by Karl Fischer method.

stability (PXRD pattern, water content, purity after storage): physically and chemically stable
Physical form (as assessed by PXRD) (4 month, 25° C./60% RH): Crystalline
Purity by HPLC (4 month, 25° C./60% RH): 99.78%
Water content by Karl Fischer method (4 month, 25° C./60% RH): 3.7%
Physical form (as assessed by PXRD) (4 month, 40° C./75% RH): Crystalline
Purity by HPLC (4 month, 40° C./75% RH): 99.78%
Water content by Karl Fischer method (4 month, 40° C./75% RH): 3.6%
Physical form (as assessed by PXRD) (5 month, 25° C./60% RH): Crystalline
Purity by HPLC (5 month, 25° C./60% RH): 99.78%
Water content by Karl Fischer method (5 month, 25° C./60% RH): 3.9%
Physical form (as assessed by PXRD) (5 month, 40° C./75% RH): Crystalline
Purity by HPLC (5 month, 40° C./75% RH): 99.77%
Water content by Karl Fischer method (5 month, 40° C./75% RH): 3.9%
Physical form (as assessed by PXRD) (6 month, 25° C./60% RH): Crystalline
Purity by HPLC (6 month, 25° C./60% RH): 99.78%
Water content by Karl Fischer method (6 month, 25° C./60% RH): 3.8%
Physical form (as assessed by PXRD) (6 month, 40° C./75% RH): Crystalline
Purity by HPLC (6 month, 40° C./75% RH): 99.78%
Water content by Karl Fischer method (6 month, 40° C./75% RH): 3.8%
Physical form (as assessed by PXRD) (Initial): Crystalline
Purity by HPLC (Initial): 99.82%
Water content by Karl Fischer method (Initial): 4.2%
SMILES: O=C(NCc1c(F)cc(F)cc1F)c1cn2c(c(O)c1=O)C(=O)N1[C@H]3CC[C@H](C3)O[C@@H]1C2 [Form HN-1, sodium (2R,5S,13aR)-7,9-dioxo-10-((2,4,6-trifluorobenzyl)carbamoyl)-2,3,4,5,7,9,13,13a-octahydro-2,5-methanopyrido [1′,2′:4,5]pyrazino[2,1-b][1,3] oxazepin-8-olate]
